Assay results taken from the supplement of paper PMC10307832.

Legend:
Test in all cases: relative viability (nuclei count vs DMSO), 5 days (fraction); higher = more cells survive
Vemurafenib = compound: CCCS(=O)(=O)Nc1ccc(F)c(C(=O)c2c[nH]c3ncc(-c4ccc(Cl)cc4)cc23)c1F [Vemurafenib]
Method in brief: (§1)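 Five library-drug doses spaced by √10 were pinned onto vehicle-anchored 1536-well plates of lung cancer cell lines that had been kept overnight at 37 °C. Cells went 5 days without medium change, then were fixed, permeabilised and Hoechst-stained together, imaged at 4× and counted by MetaXpress. Viability is the ratio of treated-well to vehicle-well nuclei, taken as a median over plates. Plates required control CV below 25% and at least one doubling.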

OSI-027 = compound: COc1cccc2cc(-c3nc([C@H]4CC[C@H](C(=O)O)CC4)n4ncnc(N)c34)[nH]c12 [OSI-027]
Method in brief: as §1

Alpelisib = compound: Cc1nc(NC(=O)N2CCC[C@H]2C(N)=O)sc1-c1ccnc(C(C)(C)C(F)(F)F)c1 [Alpelisib]
Method in brief: as §1

Vemurafenib + Lapatinib = compound: CCCS(=O)(=O)Nc1ccc(F)c(C(=O)c2c[nH]c3ncc(-c4ccc(Cl)cc4)cc23)c1F [Vemurafenib] + CS(=O)(=O)CCNCc1ccc(-c2ccc3ncnc(Nc4ccc(OCc5cccc(F)c5)c(Cl)c4)c3c2)o1 [Lapatinib] (partner 2 µM)
Method in brief: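 Five library-drug doses in √10 steps were combined with a fixed anchor-drug dose, or a single drug was given alone, by pin tool to lung cancer cell lines in 1536-well plates the day after seeding. Nuclei were stained and counted after 5 days. Relative viability is the nuclei count in treated wells over that in vehicle wells, taken as the median of duplicate plates.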

| Cell Line | relative viability (Vemurafenib; 0.03162 µM) | relative viability (Vemurafenib; 0.1 µM) | relative viability (Vemurafenib; 0.3162 µM) | relative viability (Vemurafenib; 1 µM) | relative viability (OSI-027; 0.01 µM) | relative viability (OSI-027; 0.03162 µM) | relative viability (OSI-027; 0.1 µM) | relative viability (OSI-027; 0.3162 µM) | relative viability (OSI-027; 0.5 µM, anchor plate) | relative viability (OSI-027; 1 µM) | relative viability (Alpelisib; 0.04 µM) | relative viability (Alpelisib; 0.1265 µM) | relative viability (Alpelisib; 0.4 µM) | relative viability (Alpelisib; 1.265 µM) | relative viability (Alpelisib; 2 µM, anchor plate) | relative viability (Alpelisib; 4 µM) | relative viability (Vemurafenib + Lapatinib; first compound 0.03162 µM) | relative viability (Vemurafenib + Lapatinib; first compound 0.1 µM) | relative viability (Vemurafenib + Lapatinib; first compound 0.3162 µM) | relative viability (Vemurafenib + Lapatinib; first compound 1 µM) |
| --- | --- | --- | --- | --- | --- | --- | --- | --- | --- | --- | --- | --- | --- | --- | --- | --- | --- | --- | --- | --- |
| SK-MES-1 | 0.969 | 0.727 | 0.932 | 0.973 | 1.04 | 0.967 | 0.922 | 0.78 | 0.605 | 0.35 | 0.975 | 0.998 | 1.09 | 0.894 | 0.896 | 0.757 | 0.427 | 0.477 | 0.493 | 0.486 |
| LCLC-97TM1 | 0.989 | 1.05 | 1.02 | 0.912 | 0.87 | 0.869 | 0.888 | 0.594 | 0.536 | 0.375 | 0.873 | 0.845 | 1.01 | 0.796 | 0.257 | 0.521 | 0.825 | 0.981 | 1.63 | 0.696 |
| NCI-H596 | 0.842 | 0.914 | 0.83 | 0.828 | 0.971 | 0.927 | 0.889 | 0.959 | 0.704 | 0.723 | 0.94 | 1.01 | 0.968 | 0.52 | 0.478 | 0.567 | 1.04 | 1.03 | 0.874 | 1.07 |
| BEN | 0.923 | 0.987 | 0.569 | 0.8 | 0.882 | 0.82 | 0.647 | 0.475 | 0.296 | 0.299 | 0.99 | 0.913 | 1.15 | 1.01 | 1.04 | 0.847 | 0.765 | 0.77 | 0.323 | 0.525 |
| LU99A | 0.93 | 0.946 | 0.74 | 0.895 | 0.953 | 0.894 | 0.831 | 0.451 | 0.307 | 0.27 | 0.899 | 0.96 | 1.04 | 0.773 | 0.511 | 0.696 | 0.878 | 0.985 | 1.03 | 0.916 |
| RERF-LC-KJ | 0.957 | 0.984 | 0.942 | 1.03 | 0.942 | 1.01 | 0.933 | 0.735 | 0.597 | 0.464 | 0.94 | 0.914 | 1.01 | 0.824 | 0.844 | 0.87 | 0.782 | 0.903 | 0.799 | 0.891 |
| EBC-1 | 0.943 | 0.929 | 0.986 | 1.03 | 0.943 | 0.837 | 0.909 | 0.886 | – | 0.361 | 0.942 | 0.904 | 1.15 | 0.853 | 0.866 | 0.862 | 0.201 | 0.214 | 0.245 | 0.261 |
| NCI-H1944 | 0.939 | 0.772 | 0.895 | 0.933 | 0.916 | 0.915 | 0.808 | 0.743 | 0.457 | 0.567 | 0.94 | 1.13 | 0.915 | 0.79 | 0.842 | 0.447 | 0.818 | 0.815 | 0.725 | 0.789 |
| HARA | 0.892 | 0.652 | 0.701 | 0.864 | 1.02 | 1.01 | 0.791 | 0.936 | 0.498 | 0.55 | 0.921 | 1.17 | 0.995 | 0.817 | 0.805 | 0.504 | 0.745 | – | 0.782 | 0.625 |
| A-427 | 0.953 | 0.973 | 0.852 | 0.989 | 0.891 | 0.946 | 0.794 | 0.722 | 0.47 | 0.619 | 0.98 | 0.886 | 0.965 | 0.871 | 1.09 | 0.911 | 0.907 | 1.07 | 0.973 | 1.04 |
| NCI-H2023 | 0.915 | 0.863 | 0.908 | 0.957 | 0.952 | 0.855 | 0.819 | 0.566 | 0.429 | 0.377 | 0.876 | 0.928 | 0.93 | 0.649 | 0.6 | 0.5 | 0.734 | 0.812 | 0.736 | 0.725 |
| NCI-H2347 | 0.939 | 1.02 | 0.791 | 0.924 | 0.979 | 1.07 | 0.904 | 0.772 | 0.376 | 0.516 | 1.07 | 0.97 | 1.12 | 0.949 | 0.992 | 0.864 | 0.794 | 1.02 | 0.628 | 0.637 |
| NCI-H1299 | 1.01 | 0.98 | 0.895 | 0.991 | 1 | 0.995 | 1.02 | 1.06 | – | 0.825 | 1.03 | 1.04 | 1.07 | 0.988 | 1.04 | 0.945 | 0.965 | 0.93 | 0.885 | 0.952 |
| NCI-H1975 | 0.922 | 0.9 | 0.696 | 0.886 | 0.977 | 0.924 | 0.926 | 0.953 | 0.729 | 0.622 | 0.918 | 0.968 | 0.984 | 0.664 | 0.679 | 0.561 | 0.806 | 0.983 | 0.709 | 0.919 |
| HCC-15 | 0.926 | 1.03 | 0.854 | 0.989 | 0.981 | 0.977 | 0.983 | 0.899 | 0.692 | 0.708 | 1.02 | 0.938 | 1.07 | 0.886 | 0.852 | 0.759 | 0.786 | 0.849 | 0.613 | 0.773 |
| COR-L23 | 0.943 | 0.979 | 0.927 | 1.09 | 1.11 | 0.94 | 1.04 | 0.943 | 0.769 | 0.537 | 0.959 | 1.09 | 1.08 | 0.837 | 0.739 | 0.786 | 1.01 | 0.91 | 0.684 | 0.98 |
